The NIST ThermoML archive (doi:10.1021/je049776w)
± gives the expanded uncertainty stated by the source.

Assay: xn = mol fraction of the nth substance listed
Settings: 101.3 kPa, Liquid

Cc1ccc(C)cc1 [1,4-dimethylbenzene] + CCCCCCCC
Settings	mass density [kg/m3]	viscosity [mPa·s]
298.15 K, x1 = 0.1068	712.9 ± 1.2	0.5185 ± 0.015
298.15 K, x1 = 0.2121	726.39 ± 1.1	0.5172 ± 0.015
298.15 K, x1 = 0.3156	740.39 ± 1.1	0.5216 ± 0.015
298.15 K, x1 = 0.4178	755.01 ± 1	0.5273 ± 0.015
298.15 K, x1 = 0.5184	770.21 ± 0.99	0.5297 ± 0.015
298.15 K, x1 = 0.6174	786.05 ± 0.93	0.5393 ± 0.015
298.15 K, x1 = 0.7152	802.61 ± 0.88	0.5515 ± 0.015
298.15 K, x1 = 0.8113	819.83 ± 0.82	0.5678 ± 0.015
298.15 K, x1 = 0.9065	837.91 ± 0.76	0.5905 ± 0.016
298.15 K, x1 = 1	856.7 ± 0.7	0.6162 ± 0.017
303.15 K, x1 = 0.1068	708.71 ± 1.2	0.4829 ± 0.014
303.15 K, x1 = 0.2121	722.17 ± 1.1	0.4825 ± 0.014
303.15 K, x1 = 0.3156	736.15 ± 1.1	0.4833 ± 0.014
303.15 K, x1 = 0.4178	750.77 ± 1.1	0.4919 ± 0.014
303.15 K, x1 = 0.5184	765.93 ± 1	0.493 ± 0.014
303.15 K, x1 = 0.6174	781.76 ± 0.95	0.502 ± 0.014
303.15 K, x1 = 0.7152	798.3 ± 0.89	0.5139 ± 0.014
303.15 K, x1 = 0.8113	815.51 ± 0.84	0.5299 ± 0.015
303.15 K, x1 = 0.9065	833.52 ± 0.78	0.5489 ± 0.015
303.15 K, x1 = 1	852.35 ± 0.72	0.5715 ± 0.015
313.15 K, x1 = 0.1068	700.44 ± 1.2	0.4298 ± 0.013
313.15 K, x1 = 0.2121	713.85 ± 1.2	0.4298 ± 0.013
313.15 K, x1 = 0.3156	727.78 ± 1.1	0.4331 ± 0.013
313.15 K, x1 = 0.4178	742.31 ± 1.1	0.4373 ± 0.013
313.15 K, x1 = 0.5184	757.45 ± 1	0.4418 ± 0.013
313.15 K, x1 = 0.6174	773.23 ± 0.97	0.4483 ± 0.013
313.15 K, x1 = 0.7152	789.72 ± 0.92	0.4586 ± 0.013
313.15 K, x1 = 0.8113	806.89 ± 0.86	0.4722 ± 0.014
313.15 K, x1 = 0.9065	824.89 ± 0.8	0.4895 ± 0.014
313.15 K, x1 = 1	843.64 ± 0.74	0.508 ± 0.014
323.15 K, x1 = 0.1068	692.26 ± 1.2	0.3877 ± 0.012
323.15 K, x1 = 0.2121	705.6 ± 1.2	0.3903 ± 0.012
323.15 K, x1 = 0.3156	719.47 ± 1.1	0.3901 ± 0.012
323.15 K, x1 = 0.4178	733.93 ± 1.1	0.3952 ± 0.012
323.15 K, x1 = 0.5184	749.01 ± 1.1	0.3997 ± 0.012
323.15 K, x1 = 0.6174	764.73 ± 1	0.4057 ± 0.012
323.15 K, x1 = 0.7152	781.17 ± 0.94	0.4143 ± 0.013
323.15 K, x1 = 0.8113	798.31 ± 0.89	0.4269 ± 0.013
323.15 K, x1 = 0.9065	816.2 ± 0.83	0.4409 ± 0.013
323.15 K, x1 = 1	834.9 ± 0.77	0.4599 ± 0.013
333.15 K, x1 = 0.1068	683.83 ± 1.3	0.3528 ± 0.012
333.15 K, x1 = 0.2121	697.15 ± 1.2	0.3552 ± 0.012
333.15 K, x1 = 0.3156	710.96 ± 1.2	0.3571 ± 0.012
333.15 K, x1 = 0.4178	725.38 ± 1.1	0.3617 ± 0.012
333.15 K, x1 = 0.5184	740.41 ± 1.1	0.3671 ± 0.012
333.15 K, x1 = 0.6174	756.08 ± 1	0.3753 ± 0.012
333.15 K, x1 = 0.7152	772.47 ± 0.97	0.3858 ± 0.012
333.15 K, x1 = 0.8113	789.52 ± 0.92	0.3961 ± 0.012
333.15 K, x1 = 0.9065	807.43 ± 0.86	0.4138 ± 0.013
333.15 K, x1 = 1	826.09 ± 0.8	0.4298 ± 0.013
343.15 K, x1 = 0.1068	675.29 ± 1.3	0.3167 ± 0.011
343.15 K, x1 = 0.2121	688.57 ± 1.2	0.3164 ± 0.011
343.15 K, x1 = 0.3156	702.32 ± 1.2	0.3185 ± 0.011
343.15 K, x1 = 0.4178	716.69 ± 1.1	0.3223 ± 0.011
343.15 K, x1 = 0.5184	731.68 ± 1.1	0.3271 ± 0.011
343.15 K, x1 = 0.6174	747.3 ± 1.1	0.3329 ± 0.011
343.15 K, x1 = 0.7152	763.64 ± 1	0.341 ± 0.011
343.15 K, x1 = 0.8113	780.65 ± 0.94	0.3481 ± 0.011
343.15 K, x1 = 0.9065	798.53 ± 0.89	0.3588 ± 0.012
343.15 K, x1 = 1	817.17 ± 0.83	0.3783 ± 0.012
353.15 K, x1 = 0.1068	666.51 ± 1.3	0.2856 ± 0.01
353.15 K, x1 = 0.2121	679.75 ± 1.3	0.2877 ± 0.01
353.15 K, x1 = 0.3156	693.48 ± 1.2	0.2897 ± 0.01
353.15 K, x1 = 0.4178	707.82 ± 1.2	0.2939 ± 0.011
353.15 K, x1 = 0.5184	722.78 ± 1.1	0.2984 ± 0.011
353.15 K, x1 = 0.6174	738.37 ± 1.1	0.3016 ± 0.011
353.15 K, x1 = 0.7152	754.7 ± 1	0.3113 ± 0.011
353.15 K, x1 = 0.8113	771.7 ± 0.97	0.3174 ± 0.011
353.15 K, x1 = 0.9065	789.57 ± 0.91	0.3264 ± 0.011
353.15 K, x1 = 1	808.22 ± 0.85	0.3382 ± 0.011

Cc1ccc(C)cc1 [1,4-dimethylbenzene] + CN1CCCC1=O
Settings	mass density [kg/m3]	viscosity [mPa·s]
303.15 K, x1 = 0.0947	1005.71 ± 2.4	1.359 ± 0.045
303.15 K, x1 = 0.1893	988.37 ± 2.1	1.239 ± 0.039
303.15 K, x1 = 0.2858	971.07 ± 1.9	1.129 ± 0.034
303.15 K, x1 = 0.3838	953.82 ± 1.6	1.02 ± 0.03
303.15 K, x1 = 0.483	936.56 ± 1.4	0.9203 ± 0.026
303.15 K, x1 = 0.5836	919.47 ± 1.1	0.8327 ± 0.023
303.15 K, x1 = 0.6854	902.73 ± 0.96	0.7753 ± 0.021
303.15 K, x1 = 0.7888	885.85 ± 0.82	0.7001 ± 0.019
303.15 K, x1 = 0.8937	869.04 ± 0.73	0.6291 ± 0.017
303.15 K, x1 = 1	852.35 ± 0.72	0.5715 ± 0.015
313.15 K, x1 = 0.0947	996.79 ± 2.4	1.173 ± 0.039
313.15 K, x1 = 0.1893	979.45 ± 2.1	1.07 ± 0.034
313.15 K, x1 = 0.2858	962.14 ± 1.9	0.9754 ± 0.03
313.15 K, x1 = 0.3838	944.9 ± 1.6	0.8894 ± 0.026
313.15 K, x1 = 0.483	927.68 ± 1.4	0.807 ± 0.023
313.15 K, x1 = 0.5836	910.56 ± 1.1	0.7296 ± 0.021
313.15 K, x1 = 0.6854	893.86 ± 0.97	0.6862 ± 0.019
313.15 K, x1 = 0.7888	877.02 ± 0.83	0.619 ± 0.017
313.15 K, x1 = 0.8937	860.27 ± 0.75	0.5579 ± 0.015
313.15 K, x1 = 1	843.64 ± 0.74	0.508 ± 0.014
323.15 K, x1 = 0.0947	987.88 ± 2.4	1.023 ± 0.034
323.15 K, x1 = 0.1893	970.53 ± 2.1	0.9373 ± 0.03
323.15 K, x1 = 0.2858	953.21 ± 1.8	0.8571 ± 0.027
323.15 K, x1 = 0.3838	935.97 ± 1.6	0.7795 ± 0.024
323.15 K, x1 = 0.483	918.77 ± 1.4	0.7084 ± 0.021
323.15 K, x1 = 0.5836	901.68 ± 1.2	0.6521 ± 0.019
323.15 K, x1 = 0.6854	884.99 ± 0.98	0.6084 ± 0.017
323.15 K, x1 = 0.7888	868.16 ± 0.85	0.5517 ± 0.015
323.15 K, x1 = 0.8937	851.46 ± 0.78	0.4998 ± 0.014
323.15 K, x1 = 1	834.9 ± 0.77	0.4599 ± 0.013
333.15 K, x1 = 0.0947	978.93 ± 2.4	0.9019 ± 0.031
333.15 K, x1 = 0.1893	961.55 ± 2.1	0.8316 ± 0.027
333.15 K, x1 = 0.2858	944.23 ± 1.8	0.7602 ± 0.024
333.15 K, x1 = 0.3838	926.99 ± 1.6	0.694 ± 0.021
333.15 K, x1 = 0.483	909.8 ± 1.4	0.6321 ± 0.019
333.15 K, x1 = 0.5836	892.71 ± 1.2	0.5828 ± 0.017
333.15 K, x1 = 0.6854	876.03 ± 0.99	0.5437 ± 0.016
333.15 K, x1 = 0.7888	859.21 ± 0.87	0.4947 ± 0.014
333.15 K, x1 = 0.8937	842.56 ± 0.8	0.4504 ± 0.013
333.15 K, x1 = 1	826.09 ± 0.8	0.4298 ± 0.013
343.15 K, x1 = 0.0947	969.95 ± 2.3	0.8009 ± 0.027
343.15 K, x1 = 0.1893	952.56 ± 2.1	0.7371 ± 0.024
343.15 K, x1 = 0.2858	935.23 ± 1.8	0.681 ± 0.022
343.15 K, x1 = 0.3838	917.98 ± 1.6	0.6209 ± 0.019
343.15 K, x1 = 0.483	900.82 ± 1.4	0.5686 ± 0.017
343.15 K, x1 = 0.5836	883.72 ± 1.2	0.5173 ± 0.015
343.15 K, x1 = 0.6854	867.04 ± 1	0.4921 ± 0.015
343.15 K, x1 = 0.7888	850.22 ± 0.89	0.4476 ± 0.013
343.15 K, x1 = 0.8937	833.61 ± 0.83	0.4081 ± 0.013
343.15 K, x1 = 1	817.17 ± 0.83	0.3783 ± 0.012
353.15 K, x1 = 0.0947	960.94 ± 2.3	0.7219 ± 0.025
353.15 K, x1 = 0.1893	943.54 ± 2.1	0.6637 ± 0.022
353.15 K, x1 = 0.2858	926.19 ± 1.8	0.6119 ± 0.02
353.15 K, x1 = 0.3838	908.93 ± 1.6	0.561 ± 0.018
353.15 K, x1 = 0.483	891.78 ± 1.4	0.5127 ± 0.016
353.15 K, x1 = 0.5836	874.66 ± 1.2	0.4761 ± 0.015
353.15 K, x1 = 0.6854	857.97 ± 1	0.4466 ± 0.014
353.15 K, x1 = 0.7888	841.16 ± 0.91	0.4072 ± 0.013
353.15 K, x1 = 0.8937	824.56 ± 0.85	0.3726 ± 0.012
353.15 K, x1 = 1	808.22 ± 0.85	0.3382 ± 0.011
